# According to patent publication US20220226299A1 (NIPPON CHEMIPHAR CO., LTD., priority 2019, published 2022):
# Counter-ions that a name gives are not always drawn.
# Target: T1, human Cav3.2 channels (Homo sapiens, UniProt O95180)
# T1 construct: human Cav3.2 channel ORF (Open Reading Frame) gene; expressed in transfected cells; host or cells: HEK293 cells (ATCC No. CRL-1573), pcDNA3.1(+) plasmid
# Experiment: T-type calcium blocking action: intracellular calcium (Fluo-4 AM fluorescence) in HEK293 cells steadily expressing human Cav3.2 channels
# Type: cell-based
# Conditions: HEK293 cells expressing human Cav3.2; KCl-stimulated calcium influx, Fluo-4 fluorescence; Tables 1 to 3
# Outline: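 Fluo-4 AM-loaded stable HEK293 cells were preincubated 15 min at RT with compound (0.1% DMSO final) in choline-based buffer (pH 7.3). Gramicidin was added, then KCl-induced calcium influx was read at 485/510 nm for 10 s. Percent block came from peak rise over baseline, and IC50 from log-concentration plots.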
# T1 sequence (O95180 whole entry): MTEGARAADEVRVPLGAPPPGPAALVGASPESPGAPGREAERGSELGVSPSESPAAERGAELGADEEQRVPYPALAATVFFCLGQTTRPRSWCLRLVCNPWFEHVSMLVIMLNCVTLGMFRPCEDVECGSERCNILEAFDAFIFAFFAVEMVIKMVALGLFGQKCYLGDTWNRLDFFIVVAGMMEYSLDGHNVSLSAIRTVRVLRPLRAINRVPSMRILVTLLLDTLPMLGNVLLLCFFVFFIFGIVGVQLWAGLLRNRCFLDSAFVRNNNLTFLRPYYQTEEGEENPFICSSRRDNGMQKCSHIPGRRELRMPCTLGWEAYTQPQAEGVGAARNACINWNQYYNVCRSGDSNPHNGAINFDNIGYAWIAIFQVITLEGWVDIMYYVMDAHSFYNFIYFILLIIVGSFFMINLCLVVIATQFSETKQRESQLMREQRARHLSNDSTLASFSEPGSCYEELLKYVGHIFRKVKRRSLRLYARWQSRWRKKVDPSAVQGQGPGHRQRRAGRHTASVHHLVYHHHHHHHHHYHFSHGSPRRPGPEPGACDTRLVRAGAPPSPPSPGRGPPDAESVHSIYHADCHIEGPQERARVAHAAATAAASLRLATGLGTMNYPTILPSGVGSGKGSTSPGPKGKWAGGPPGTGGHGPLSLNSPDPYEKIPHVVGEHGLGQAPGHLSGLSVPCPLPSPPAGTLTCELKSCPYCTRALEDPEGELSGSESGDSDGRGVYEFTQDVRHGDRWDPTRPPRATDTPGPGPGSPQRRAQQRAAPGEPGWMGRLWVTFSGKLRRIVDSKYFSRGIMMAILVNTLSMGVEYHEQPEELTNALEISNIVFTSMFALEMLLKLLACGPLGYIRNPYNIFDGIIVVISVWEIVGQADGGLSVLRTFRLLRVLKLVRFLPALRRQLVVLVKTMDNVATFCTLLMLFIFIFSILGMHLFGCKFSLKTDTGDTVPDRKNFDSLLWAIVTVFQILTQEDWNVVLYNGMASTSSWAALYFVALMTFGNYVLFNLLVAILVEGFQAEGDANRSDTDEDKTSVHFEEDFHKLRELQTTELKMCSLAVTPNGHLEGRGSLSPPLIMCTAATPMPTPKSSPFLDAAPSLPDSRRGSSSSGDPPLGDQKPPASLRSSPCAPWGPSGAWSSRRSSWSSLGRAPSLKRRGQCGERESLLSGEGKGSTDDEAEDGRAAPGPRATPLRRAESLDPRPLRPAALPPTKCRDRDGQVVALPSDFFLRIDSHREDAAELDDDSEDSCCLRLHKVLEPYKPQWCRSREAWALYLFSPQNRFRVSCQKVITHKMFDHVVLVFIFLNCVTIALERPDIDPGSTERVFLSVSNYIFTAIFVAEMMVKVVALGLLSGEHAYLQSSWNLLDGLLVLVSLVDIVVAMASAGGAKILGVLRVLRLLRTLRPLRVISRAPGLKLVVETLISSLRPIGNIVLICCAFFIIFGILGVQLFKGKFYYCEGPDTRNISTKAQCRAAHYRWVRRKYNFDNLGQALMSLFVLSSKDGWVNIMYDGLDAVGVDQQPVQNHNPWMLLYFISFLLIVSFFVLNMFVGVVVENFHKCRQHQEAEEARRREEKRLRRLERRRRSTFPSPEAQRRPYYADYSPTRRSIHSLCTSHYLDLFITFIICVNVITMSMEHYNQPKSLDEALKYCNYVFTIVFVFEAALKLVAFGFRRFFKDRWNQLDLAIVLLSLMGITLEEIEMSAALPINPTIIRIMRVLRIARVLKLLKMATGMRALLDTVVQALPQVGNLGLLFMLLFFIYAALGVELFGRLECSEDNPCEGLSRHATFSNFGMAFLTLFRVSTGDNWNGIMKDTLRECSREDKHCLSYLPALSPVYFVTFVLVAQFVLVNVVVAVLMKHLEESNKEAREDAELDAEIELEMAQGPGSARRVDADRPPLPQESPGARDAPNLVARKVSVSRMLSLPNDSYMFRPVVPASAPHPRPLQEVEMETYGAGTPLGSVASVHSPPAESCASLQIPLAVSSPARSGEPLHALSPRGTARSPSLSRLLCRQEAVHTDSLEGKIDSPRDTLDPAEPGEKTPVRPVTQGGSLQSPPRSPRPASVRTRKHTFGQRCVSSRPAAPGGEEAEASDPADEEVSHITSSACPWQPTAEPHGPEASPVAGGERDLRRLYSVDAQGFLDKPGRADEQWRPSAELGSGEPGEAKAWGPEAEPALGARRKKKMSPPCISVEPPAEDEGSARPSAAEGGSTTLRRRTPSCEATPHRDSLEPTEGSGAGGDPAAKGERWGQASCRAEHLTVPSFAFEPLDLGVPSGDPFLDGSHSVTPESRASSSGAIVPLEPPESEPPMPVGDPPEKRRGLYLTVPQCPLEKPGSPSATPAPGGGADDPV
row,Compound,IC50 [µM]
1,"CN1CCN(c2ccc(CC(=O)N[C@@H]3CCN(c4cncc(C(F)(F)F)c4)C3)cc2)CC1 [Example 93, (R)-2-(4-(4-methylpiperazin-1-yl)phenyl)-N-(1-(5-(trifluoromethyl)pyridin-3-yl)pyrrolidin-3-yl)acetamide]",0.34
2,"O=C(Cc1ccc(C2CC2)cc1)N[C@@H]1CCN(c2cc(OCC(F)(F)F)ccn2)C1 [Example 127, (R)-2-(4-cyclopropylphenyl)-N-(1-(4-(2,2,2-trifluoroethoxy)pyridin-2-yl)pyrrolidin-3-yl)acetamide]",1.1
3,"O=C(Cc1ccc(C2CC2)cc1)N[C@@H]1CCN(c2cc(C(F)(F)F)ccn2)C1 [Example 182, (R)-2-(4-cyclopropylphenyl)-N-(1-(4-(trifluoromethyl)pyridin-2-yl)pyrrolidin-3-yl)acetamide]",0.72
4,"CC(=O)OCC1(NC(=O)Cc2ccc(C3CC3)cc2)CCN(c2cncc(C(F)(F)F)c2)C1 (stereo not drawn) [Example 104, (3-(2-(4-cyclopropylphenyl)acetamido)-1-(5-(trifluoromethyl)pyridin-3-yl)pyrrolidin-3-yl)methyl acetate]",0.46
5,"O=C(N[C@@H]1CCN(c2cncc(C(F)(F)F)c2)C1)[C@H]1C[C@@H]1c1nc2cc(F)ccc2o1 [Example 49, (1S,2S)-2-(5-fluorobenzo[d]oxazol-2-yl)-N—((R)-1-(5-(trifluoromethyl)pyridin-3-yl)pyrrolidin-3-yl)cyclopropane-1-carboxyamide]",0.0071
6,"O=C(Cc1ccc(C(F)(F)F)cn1)N[C@@H]1CCN(c2cncc(C(F)(F)F)c2)C1 [Example 2, (R)-2-(5-(trifluoromethyl)pyridin-2-yl)-N-(1-(5-(trifluoromethyl)pyridin-3-yl)pyrrolidin-3-yl)acetamide]",1.3
7,"O=C(Cc1ccc(C2CC2)cc1)N[C@@H]1CCN(c2cccc(O)c2)C1 [Example 178, (R)-2-(4-cyclopropylphenyl)-N-(1-(3-hydroxyphenyl)pyrrolidin-3-yl)acetamide]",0.59
8,"O=C(Cc1ccc(C2CC2)cc1)NC1(C(=O)O)CCN(c2cncc(C(F)(F)F)c2)C1 (stereo not drawn) [Example 14, 3-(2-(4-cyclopropylphenyl)acetamido)-1-(5-(trifluoromethyl)pyridin-3-yl)pyrrolidine-3-carboxylic acid]",5.2
9,"O=C(Cc1ccc(C2CC2)cc1)N[C@@H]1CCN(c2ncc(Br)s2)C1 [Example 173, (R)—N-(1-(5-bromothiazol-2-yl)pyrrolidin-3-yl)-2-(4-cyclopropylphenyl)acetamide]",1.1
10,"O=C(Cc1ccc(C2CC2)cc1)NC1CN(c2ccc(F)c(C(F)(F)F)c2)C1 [Example 170, 2-(4-cyclopropylphenyl)-N-(1-(4-fluoro-3-(trifluoromethyl)phenyl)azetidin-3-yl)acetamide]",0.88
11,"O=C(N[C@@H]1CCN(c2cncc(Br)c2)C1)[C@H]1C[C@@H]1c1nc2ccccc2[nH]1 [Example 76, (1S,2S)-2-(1H-benzo[d]imidazol-2-yl)-N—((R)-1-(5-bromopyridin-3-yl)pyrrolidin-3-yl)cyclopropane-1-carboxyamide]",0.067
12,"CC(C)(C)c1csc(N2CC[C@@H](NC(=O)[C@H]3C[C@@H]3c3nc4ccccc4[nH]3)C2)n1 [Example 68, (1S,2S)-2-(1H-benzo[d]imidazol-2-yl)-N—((R)-1-(4-(tert-butyl)thiazol-2-yl)pyrrolidin-3-yl)cyclopropane-1-carboxyamide]",0.075
13,O=C(N[C@@H]1CCN(c2cncc(C(F)(F)F)c2)C1)[C@H]1C[C@@H]1c1nc2cc(F)c(F)cc2o1 [Example 45],0.011
14,"O=C(N[C@@H]1CCN(c2cncc(C(F)(F)F)c2)C1)C1CC1c1ccc(Br)cc1 (single isomer, unassigned) [Example 100B]",0.46
15,"O=C(Cc1nc2ccc(Cl)cc2o1)N[C@@H]1CCN(c2cncc(C(F)(F)F)c2)C1 [Example 97, (R)-2-(6-chlorobenzo[d]oxazol-2-yl)-N-(1-(5-(trifluoromethyl)pyridin-3-yl)pyrrolidin-3-yl)acetamide]",0.25
16,"O=C(N[C@@H]1CCCN(c2ccc(C(F)(F)F)cc2)C1)[C@H]1C[C@@H]1c1nc2ccccc2[nH]1 [Example 65, (1S,2S)-2-(1H-benzo[d]imidazol-2-yl)-N—((R)-1-(4-(trifluoromethyl)phenyl)piperidin-3-yl)cyclopropane-1-carboxyamide]",8.9
17,"[2H]C([2H])(C(=O)N[C@@H]1CCN(c2cncc(C(F)(F)F)c2)C1)c1ccc(C(F)(F)F)cc1 [Example 83, (R)-2-(4-(trifluoromethyl)phenyl)-N-(1-(5-(trifluoromethyl)pyridin-3-yl)pyrrolidin-3-yl)acetamide-2,2-d2]",0.082
18,"O=C(Cc1ccc(C(F)(F)F)cc1)NC1CN(c2cncc(C(F)(F)F)c2)C1 [Example 89, 2-(4-(Trifluoromethyl)phenyl)-N-(1-(5-(trifluoromethyl)pyridin-3-yl)azetidin-3-yl)acetamide]",0.43

# Other lines, results leading:
row,IC50 [µM],Compound
1,0.18,"O=C(Cc1ccc(C(F)(F)F)cc1)N[C@@H]1CCN(c2cncc(C(F)(F)F)n2)C1 [Example 11, (R)-2-(4-(trifluoromethyl)phenyl)-N-(1-(6-(trifluoromethyl)pyrazin-2-yl)pyrrolidin-3-yl)acetamide]"
2,0.65,"O=C(Cc1ccc([N+](=O)[O-])cc1)N[C@@H]1CCN(c2cncc(C(F)(F)F)c2)C1 [Example 30, (R)-2-(4-nitrophenyl)-N-(1-(5-(trifluoromethyl)pyridin-3-yl)pyrrolidin-3-yl)acetamide]"
3,2.7,"O=C(Cc1ccc2ocnc2c1)N[C@@H]1CCN(c2ccc(C(F)(F)F)nc2)C1 [Example 151, (R)-2-(benzo[d]oxazol-5-yl)-N-(1-(6-(trifluoromethyl)pyridin-3-yl)pyrrolidin-3-yl)acetamide]"
4,0.2,"O=C(Cc1ccc(C2CC2)cc1)N[C@@H]1CCN(c2ccc(F)c(C(F)(F)F)c2)C1 [Example 174, (R)-2-(4-cyclopropylphenyl)-N-(1-(4-fluoro-3-(trifluoromethyl)phenyl)pyrrolidin-3-yl)acetamide]"
5,0.072,"Cn1ccc2ccc(CC(=O)N[C@@H]3CCN(c4ccc(C(F)(F)F)nc4)C3)cc21 [Example 92, (R)-2-(1-methyl-1H-indol-6-yl)-N-(1-(6-(trifluoromethyl)pyridin-3-yl)pyrrolidin-3-yl)acetamide]"
6,0.097,"O=C(Cc1ccc(C2CC2)cc1)N[C@H]1CN(c2ccc(C(F)(F)F)nc2)CC12CC2 [Example 7, (R)-2-(4-cyclopropylphenyl)-N-(5-(6-(trifluoromethyl)pyridin-3-yl)-5-azaspiro[2.4]heptan-7-yl) acetamide]"
7,0.19,"Cc1nccnc1-c1ccc(CC(=O)N[C@@H]2CCN(c3cncc(C(F)(F)F)c3)C2)cc1 [Example 132, (R)-2-(4-(3-methylpyrazin-2-yl)phenyl)-N-(1-(5-(trifluoromethyl)pyridin-3-yl)pyrrolidin-3-yl)acetamide]"
8,0.25,"O=C(Cc1ccc(N2CCOCC2)cc1)N[C@@H]1CCN(c2ccc(C(F)(F)F)nc2)C1 [Example 42, (R)-2-(4-morpholinophenyl)-N-(1-(6-(trifluoromethyl)pyridin-3-yl)pyrrolidin-3-yl)acetamide]"
9,2.9,"O=C(Cc1ccc2[nH]nnc2c1)N[C@@H]1CCN(c2ccc(C(F)(F)F)nc2)C1 [Example 164, (R)-2-(1H-benzo[d][1,2,3]triazol-5-yl)-N-(1-(6-(trifluoromethyl)pyridin-3-yl)pyrrolidin-3-yl)acetamide]"
10,0.12,"O=C(Cc1ccc(C2CC2)cc1)N[C@@H]1CCN(c2ccc(C(F)(F)F)nc2)C1 [Example 121, (R)-2-(4-cyclopropylphenyl)-N-(1-(6-(trifluoromethyl)pyridin-3-yl)pyrrolidin-3-yl)acetamide]"
11,0.37,"O=C(Cc1ccc2cn[nH]c2c1)N[C@@H]1CCN(c2cncc(C(F)(F)F)c2)C1 [Example 15, (R)-2-(1H-indazol-6-yl)-N-(1-(5-(trifluoromethyl)pyridin-3-yl)pyrrolidin-3-yl)acetamide]"
12,0.0054,"O=C(Cc1ccc(N2CCCC2)cc1)N[C@@H]1CCN(c2cncc(C(F)(F)F)c2)C1 [Example 87, (R)-2-(4-(pyrrolidin-1-yl)phenyl)-N-(1-(5-(trifluoromethyl)pyridin-3-yl)pyrrolidin-3-yl)acetamide]"
13,0.15,"O=C(Cc1ccc2cccnc2c1)N[C@@H]1CCN(c2cncc(C(F)(F)F)c2)C1 [Example 79, (R)-2-(quinolin-7-yl)-N-(1-(5-(trifluoromethyl)pyridin-3-yl)pyrrolidin-3-yl)acetamide hydrochloride]"
14,6.4,"O=C(Cc1ccc2[nH]ncc2c1)N[C@@H]1CCN(c2ccc(C(F)(F)F)nc2)C1 [Example 160, (R)-2-(1H-indazol-5-yl)-N-(1-(6-(trifluoromethyl)pyridin-3-yl)pyrrolidin-3-yl)acetamide]"
15,0.11,"O=C(Cc1ccc2cc[nH]c2c1)N[C@@H]1CCN(c2ccc(C(F)(F)F)nc2)C1 [Example 85, (R)-2-(1H-indol-6-yl)-N-(1-(6-(trifluoromethyl)pyridin-3-yl)pyrrolidin-3-yl)acetamide]"
16,0.57,"Cc1nc2cc(CC(=O)N[C@@H]3CCN(c4cncc(C(F)(F)F)c4)C3)ccc2o1 [Example 153, (R)-2-(2-methylbenzo[d]oxazol-5-yl)-N-(1-(5-(trifluoromethyl)pyridin-3-yl)pyrrolidin-3-yl)acetamide]"
17,> 10,"O=C(N[C@@H]1CCCN(c2ccc(C(F)(F)F)nc2)C1)C1CC1c1nc2ccccc2[nH]1 (single isomer, unassigned) [Example 63B]"
18,0.014,"CC(C)c1ccc(CC(=O)N[C@@H]2CCN(c3cncc(C(F)(F)F)c3)C2)cc1 [Example 4, (R)-2-(4-isopropylphenyl)-N-(1-(5-(trifluoromethyl)pyridin-3-yl)pyrrolidin-3-yl)acetamide]"
